In test [1] the test system is MDA-MB-231. As to the kind of experiment: Antiproliferative activity against human MDA-MB-231 cells assessed as inhibition of cell proliferation incubated for 72 hrs in presence of 4-((8-hydroxyoctyl)oxy)-3-(phenylsulfonyl)-1,2,5-oxadiazole 2-oxide by MTT assay. Format: functional, cell-based. Particulars: MDA-MB-231, 72 h. (In general: Formazan colour is commonly taken as a measure of viable cells.)

Test [2] relates to MDA-MB-231. As to the kind of experiment: Antiproliferative activity against human MDA-MB-231 cells assessed as inhibition of cell proliferation incubated for 72 hrs by MTT assay. The test is classed as functional, cell-based. Particulars: MDA-MB-231, 72 h.
For test [3], the system named is MDA-MB-231. In words: Antiproliferative activity against human MDA-MB-231 cells assessed as inhibition of cell proliferation at 5 uM incubated for 72 hrs by MTT assay relative to control. Format: functional.
Another test has as its system MDA-MB-157. As to the kind of experiment: Antiproliferative activity against human MDA-MB-157 cells assessed as inhibition of cell proliferation incubated for 72 hrs by MTT assay. The test is classed as functional, cell-based. Particulars: MDA-MB-157, 72 h.
A further test concerns the target Focal adhesion kinase 1 (Homo sapiens, UniProt Q05397). In words: Inhibition of FAK (unknown origin).
Test [4] concerns MDA-MB-231. In words: Induction of NO production in human MDA-MB-231 cells at 4 uM incubated for 72 hrs by DAF-FM-DA dye based flow cytometry analysis. The test is classed as functional, cell-based. For orientation: Flow cytometry measures light scatter and fluorescence of single cells or particles in a stream.
For another test, the system named is MDA-MB-453. As to the kind of experiment: Antiproliferative activity against human MDA-MB-453 cells assessed as inhibition of cell proliferation incubated for 72 hrs by MTT assay. Particulars: MDA-MB-453, 72 h. The test is classed as functional, cell-based.

Structures are written as SMILES. Active and inactive are the calls of the source. No cut-off for these calls is given here.

Sequence of Focal adhesion kinase 1 (Q05397 whole entry): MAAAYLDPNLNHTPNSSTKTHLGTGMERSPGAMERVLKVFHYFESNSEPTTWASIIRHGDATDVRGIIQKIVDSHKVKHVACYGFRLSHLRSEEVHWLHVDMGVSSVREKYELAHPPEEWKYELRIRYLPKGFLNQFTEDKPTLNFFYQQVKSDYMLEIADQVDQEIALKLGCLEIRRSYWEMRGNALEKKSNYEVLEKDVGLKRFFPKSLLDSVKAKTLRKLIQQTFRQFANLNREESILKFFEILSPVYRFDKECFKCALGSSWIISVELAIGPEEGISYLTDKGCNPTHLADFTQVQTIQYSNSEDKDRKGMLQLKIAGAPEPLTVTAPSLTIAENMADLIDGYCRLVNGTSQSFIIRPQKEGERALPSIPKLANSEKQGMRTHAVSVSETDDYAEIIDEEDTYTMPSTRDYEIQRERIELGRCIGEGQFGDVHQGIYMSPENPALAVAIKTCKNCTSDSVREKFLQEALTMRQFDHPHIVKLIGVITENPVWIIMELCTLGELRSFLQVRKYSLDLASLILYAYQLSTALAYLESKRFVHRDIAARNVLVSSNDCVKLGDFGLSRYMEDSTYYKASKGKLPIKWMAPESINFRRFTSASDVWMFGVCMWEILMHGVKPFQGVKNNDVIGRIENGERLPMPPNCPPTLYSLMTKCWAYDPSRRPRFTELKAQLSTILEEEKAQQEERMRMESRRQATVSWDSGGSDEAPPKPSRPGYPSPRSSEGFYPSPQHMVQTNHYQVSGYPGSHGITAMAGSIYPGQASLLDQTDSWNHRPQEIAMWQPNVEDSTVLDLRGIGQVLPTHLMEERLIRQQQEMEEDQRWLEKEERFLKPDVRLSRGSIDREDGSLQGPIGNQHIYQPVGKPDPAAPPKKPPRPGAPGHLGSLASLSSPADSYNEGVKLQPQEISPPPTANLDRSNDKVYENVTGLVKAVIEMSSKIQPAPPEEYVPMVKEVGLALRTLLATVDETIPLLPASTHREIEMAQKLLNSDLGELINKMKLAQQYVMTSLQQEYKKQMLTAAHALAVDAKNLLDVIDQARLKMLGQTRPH

Turning to `CNC(=O)c1ccccc1Nc1nc(Nc2ccc(CC(=O)O)cc2)ncc1Cl`, the IC50 – broadly, the point on the concentration scale where inhibition reaches its midpoint – was 1220 nM with MDA-MB-231 [1] and 1950 nM with MDA-MB-231 [2].
Regarding `CNC(=O)c1ccccc1Nc1nc(Nc2ccc(CC(=O)OCCCCCOc3no[n+]([O-])c3S(=O)(=O)c3ccccc3)cc2)ncc1Cl`, the inhibition (as a rule, the relative decrease from the control value, in per cent) at 5 µM with MDA-MB-231 [3] was greater than 92%. Besides, the IC50 in the test on MDA-MB-231 [2] worked out at 130 nM; with MDA-MB-157 it was 235 nM; against Focal adhesion kinase 1, 107 nM; with MDA-MB-453, 221 nM. In addition, the result in the test on MDA-MB-231 [4] was Active.

For the origin of these results see ChEMBL document CHEMBL5385886, “Design, synthesis and evaluation of nitric oxide releasing derivatives of 2,4-diaminopyrimidine as novel FAK inhibitors for intervention of metastatic triple-negative breast cancer” (Eur J Med Chem, 2023).
